38 compounds from patent publication US20140315933A1, “CHEMICAL COMPOUNDS” (Pfizer Limited, priority 2013, published 2014) can be followed below.

T1 sequence (Q96S37 with tags, fused parts or gaps): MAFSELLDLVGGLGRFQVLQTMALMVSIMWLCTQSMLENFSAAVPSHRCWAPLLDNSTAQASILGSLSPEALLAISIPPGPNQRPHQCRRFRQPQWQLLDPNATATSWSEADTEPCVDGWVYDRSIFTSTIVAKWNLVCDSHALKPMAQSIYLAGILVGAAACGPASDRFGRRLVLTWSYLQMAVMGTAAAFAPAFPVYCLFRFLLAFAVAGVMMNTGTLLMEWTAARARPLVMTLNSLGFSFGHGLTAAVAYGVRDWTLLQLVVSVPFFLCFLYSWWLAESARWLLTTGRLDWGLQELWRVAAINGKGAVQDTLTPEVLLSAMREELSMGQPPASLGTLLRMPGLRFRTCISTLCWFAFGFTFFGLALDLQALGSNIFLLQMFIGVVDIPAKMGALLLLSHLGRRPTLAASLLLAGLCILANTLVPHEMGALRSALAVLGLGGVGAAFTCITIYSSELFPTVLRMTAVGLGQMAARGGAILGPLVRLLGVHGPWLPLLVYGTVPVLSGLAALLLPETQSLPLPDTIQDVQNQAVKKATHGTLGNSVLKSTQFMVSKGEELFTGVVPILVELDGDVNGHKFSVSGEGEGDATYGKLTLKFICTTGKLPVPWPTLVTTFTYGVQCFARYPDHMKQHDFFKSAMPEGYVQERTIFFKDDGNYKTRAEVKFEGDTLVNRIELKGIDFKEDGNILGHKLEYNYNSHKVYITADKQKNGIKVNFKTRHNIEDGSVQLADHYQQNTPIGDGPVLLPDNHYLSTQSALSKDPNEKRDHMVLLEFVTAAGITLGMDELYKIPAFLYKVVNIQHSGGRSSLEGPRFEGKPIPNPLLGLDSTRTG

The assay addresses T1, URAT-1 transporter (Homo sapiens, UniProt Q96S37).
T1 construct: expressed in transfected cells
As to the kind of experiment: URAT-1 inhibitor activity: [14C]-uric acid uptake into CHO-URAT1(L)GFP#8 (CHO#8) cells, scintillation proximity. It is filed as cell-based. The essentials:
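Scintillation proximity read-out of 30 nM (final) [14C]-uric acid uptake over three hours at room temperature in chloride-free HEPES buffer pH 7.4. Compounds, 0–10 μM final with 0.25% DMSO, were added 15 minutes before substrate; cells were a clonal CHO line with human URAT1(L)-eGFP, preincubated 1 hour in chloride buffer.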
Turning to `CC(C)c1ccc(Oc2ccc(S(=O)(=O)Nc3ncc(F)s3)cc2C#N)cc1` [Example 103, 3-cyano-N-(5-fluoro-1,3-thiazol-2-yl)-4-[4-(propan-2-yl)phenoxy]benzenesulfonamide], the IC50 is greater than 6780 nM.

For `N#Cc1cc(S(=O)(=O)Nc2ncc(F)s2)ccc1Oc1ccccc1F` [Example 104, 3-cyano-4-(2-fluorophenoxy)-N-(5-fluoro-1,3-thiazol-2-yl)benzenesulfonamide], 2620 nM corresponded to half-maximal inhibition (IC50).

The compound `Cc1ccc(F)cc1Oc1ccc(S(=O)(=O)Nc2ncc(F)s2)cc1C#N` [Example 105, 3-cyano-4-(5-fluoro-2-methylphenoxy)-N-(5-fluoro-1,3-thiazol-2-yl)benzenesulfonamide] came in with an IC50 greater than 1790 nM.

For the compound `N#Cc1cc(S(=O)(=O)Nc2ncc(F)s2)ccc1Oc1cc(F)cc(F)c1` [Example 106, 3-cyano-4-(3,5-difluorophenoxy)-N-(5-fluoro-1,3-thiazol-2-yl)benzenesulfonamide], the IC50 is greater than 1340 nM.

Consider `CC(C)c1cccc(Oc2ccc(S(=O)(=O)Nc3ncc(F)s3)cc2C#N)c1` [Example 107, 3-cyano-N-(5-fluoro-1,3-thiazol-2-yl)-4-[3-(propan-2-yl)phenoxy]benzenesulfonamide], for which the IC50 is greater than 6780 nM.

The compound `CCc1ccccc1Oc1ccc(S(=O)(=O)Nc2ncc(F)s2)cc1C#N` [Example 108, 3-cyano-4-(2-ethylphenoxy)-N-(5-fluoro-1,3-thiazol-2-yl)benzenesulfonamide] gave an IC50 of 345 nM. This lies in the sub-micromolar range.

`COc1cccc(Oc2ccc(S(=O)(=O)Nc3ncc(F)s3)cc2C#N)c1` [Example 109, 3-cyano-N-(5-fluoro-1,3-thiazol-2-yl)-4-(3-methoxyphenoxy)benzenesulfonamide] came in with an IC50 of 552 nM.

Take `N#Cc1cc(S(=O)(=O)Nc2ncc(F)s2)ccc1Oc1cccc(Cl)c1` [Example 110, 4-(3-chlorophenoxy)-3-cyano-N-(5-fluoro-1,3-thiazol-2-yl)benzenesulfonamide]: the IC50 was greater than 7540 nM.

`N#Cc1cc(S(=O)(=O)Nc2ncc(F)s2)ccc1Oc1ccc(F)c(Cl)c1` [Example 111, 4-(3-chloro-4-fluorophenoxy)-3-cyano-N-(5-fluoro-1,3-thiazol-2-yl)benzenesulfonamide] had an IC50 of 871 nM.

The compound `Cc1ccccc1Oc1ccc(S(=O)(=O)Nc2ncc(F)s2)cc1C#N` [Example 112, 3-cyano-N-(5-fluoro-1,3-thiazol-2-yl)-4-(2-methylphenoxy)benzenesulfonamide] showed an IC50 of 4030 nM.

The compound `N#Cc1cc(S(=O)(=O)Nc2ncc(F)s2)ccc1Oc1cc(F)c(F)cc1F` [Example 113, 3-cyano-N-(5-fluoro-1,3-thiazol-2-yl)-4-(2,4,5-trifluorophenoxy)benzenesulfonamide] had an IC50 of 1120 nM.

`N#Cc1cc(S(=O)(=O)Nc2ncc(F)s2)ccc1Oc1cccc(F)c1F` [Example 114, 3-cyano-4-(2,3-difluorophenoxy)-N-(5-fluoro-1,3-thiazol-2-yl)benzenesulfonamide]: the IC50 amounted to 4410 nM.

As to `N#Cc1cc(S(=O)(=O)Nc2ncc(F)s2)ccc1Oc1c(F)ccc(F)c1F` [Example 115, 3-cyano-N-(5-fluoro-1,3-thiazol-2-yl)-4-(2,3,6-trifluorophenoxy)benzenesulfonamide], 1630 nM corresponded to half-maximal inhibition (IC50).

As to `N#Cc1cc(S(=O)(=O)Nc2ncc(F)s2)ccc1Oc1ccc(Cl)cc1F` [Example 116, 4-(4-chloro-2-fluorophenoxy)-3-cyano-N-(5-fluoro-1,3-thiazol-2-yl)benzenesulfonamide], the IC50 is greater than 5310 nM.

`Cc1cc(Cl)ccc1Oc1ccc(S(=O)(=O)Nc2ncc(F)s2)cc1C#N` [Example 117, 4-(4-chloro-2-methylphenoxy)-3-cyano-N-(5-fluoro-1,3-thiazol-2-yl)benzenesulfonamide]: 1440 nM corresponded to half-maximal inhibition (IC50).

Take `N#Cc1cc(S(=O)(=O)Nc2ncc(F)s2)ccc1Oc1cc(F)c(F)c(F)c1` [Example 118, 3-cyano-N-(5-fluoro-1,3-thiazol-2-yl)-4-(3,4,5-trifluorophenoxy)benzenesulfonamide]: the 50% inhibitory concentration (IC50) was found to be 1380 nM.

In turn, `N#Cc1cc(S(=O)(=O)Nc2ncc(F)s2)ccc1Oc1cccc(Cl)c1F` [Example 119, 4-(3-chloro-2-fluorophenoxy)-3-cyano-N-(5-fluoro-1,3-thiazol-2-yl)benzenesulfonamide] came in with an IC50 of 1570 nM.

As for `Cc1ccc(Oc2ccc(S(=O)(=O)Nc3ncc(F)s3)cc2C#N)c(F)c1F` [Example 120, 3-cyano-4-(2,3-difluoro-4-methylphenoxy)-N-(5-fluoro-1,3-thiazol-2-yl)benzenesulfonamide], it took 1320 nM to reach half-maximal inhibition (IC50).

The compound `N#Cc1cc(S(=O)(=O)Nc2ncc(F)s2)ccc1Oc1ccc(F)c(F)c1F` [Example 121, 3-cyano-N-(5-fluoro-1,3-thiazol-2-yl)-4-(2,3,4-trifluorophenoxy)benzenesulfonamide] gave an IC50 of 1040 nM.

Regarding `COc1cc(F)cc(Oc2ccc(S(=O)(=O)Nc3ncc(F)s3)cc2C#N)c1` [Example 122, 3-cyano-4-(3-fluoro-5-methoxyphenoxy)-N-(5-fluoro-1,3-thiazol-2-yl)benzenesulfonamide], the IC50 came to 581 nM.

On to `Cc1ccc(F)c(Oc2ccc(S(=O)(=O)Nc3ncc(F)s3)cc2C#N)c1F` [Example 123, 3-cyano-4-(2,6-difluoro-3-methylphenoxy)-N-(5-fluoro-1,3-thiazol-2-yl)benzenesulfonamide], for which the IC50 was determined as 1250 nM. Compared with the last compound, the IC50 is about 2.2-fold higher.

With `Cc1ccc(Oc2ccc(S(=O)(=O)Nc3ncc(F)s3)cc2C#N)c(Cl)c1` [Example 124, 4-(2-chloro-4-methylphenoxy)-3-cyano-N-(5-fluoro-1,3-thiazol-2-yl)benzenesulfonamide], the IC50 is greater than 6360 nM.

In the case of `N#Cc1cc(S(=O)(=O)Nc2ncc(F)s2)ccc1Oc1c(F)cccc1Cl` [Example 125, 4-(2-chloro-6-fluorophenoxy)-3-cyano-N-(5-fluoro-1,3-thiazol-2-yl)benzenesulfonamide], the IC50 was found to be 551 nM.

As to `N#Cc1cc(S(=O)(=O)Nc2ncc(F)s2)ccc1Oc1cc(F)cc(Cl)c1` [Example 126, 4-(3-chloro-5-fluorophenoxy)-3-cyano-N-(5-fluoro-1,3-thiazol-2-yl)benzenesulfonamide], 699 nM corresponded to half-maximal inhibition (IC50).

On to `Cc1cccc(Cl)c1Oc1ccc(S(=O)(=O)Nc2ncc(F)s2)cc1C#N` [Example 127, 4-(2-chloro-6-methylphenoxy)-3-cyano-N-(5-fluoro-1,3-thiazol-2-yl)benzenesulfonamide], for which it took 2290 nM to reach half-maximal inhibition (IC50).

Regarding `Cc1c(Oc2ccc(S(=O)(=O)Nc3ncc(F)s3)cc2C#N)ccc(F)c1F` [Example 128, 3-cyano-4-(3,4-difluoro-2-(methylphenoxy)-N-5-fluoro-1,3-thiazol-2-yl)benzenesulfonamide], the IC50 came to 1190 nM.

`Cc1ccc(Cl)cc1Oc1ccc(S(=O)(=O)Nc2ncc(F)s2)cc1C#N` [Example 129, 4-(5-chloro-2-methylphenoxy)-3-cyano-N-(5-fluoro-1,3-thiazol-2-yl)benzenesulfonamide] came in with an IC50 of 480 nM.

Compound `N#Cc1cc(S(=O)(=O)Nc2ncc(F)s2)ccc1Oc1ccc(F)cc1Cl` [Example 130, 4-(2-chloro-4-fluorophenoxy)-3-cyano-N-(5-fluoro-1,3-thiazol-2-yl)benzenesulfonamide] gave an IC50 of 414 nM.

Consider `CCc1cc(F)ccc1Oc1ccc(S(=O)(=O)Nc2ncc(F)s2)cc1C#N` [Example 131, 3-cyano-4-(2-ethyl-4-fluorophenoxy)-N-(5-fluoro-1,3-thiazol-2-yl)benzenesulfonamide], for which half-maximal inhibition (IC50) required 297 nM.

The compound `N#Cc1cccc(Oc2ccc(S(=O)(=O)Nc3ncc(F)s3)cc2C#N)c1` [Example 132, 3-cyano-4-(3-cyanophenoxy)-N-(5-fluoro-1,3-thiazol-2-yl)benzenesulfonamide] gave an IC50 of 2600 nM.

`N#Cc1cc(S(=O)(=O)Nc2ncc(F)s2)ccc1Oc1cccc(C(F)(F)F)c1` [Example 133, 3-cyano-N-(5-fluoro-1,3-thiazol-2-yl)-4-[3-(trifluoromethyl)phenoxy]benzenesulfonamide]: the IC50 amounted to 1580 nM.

For the compound `N#Cc1cc(S(=O)(=O)Nc2ncc(F)s2)ccc1Oc1cc(C(F)(F)F)ccc1F` [Example 134, 3-cyano-N-(5-fluoro-1,3-thiazol-2-yl)-4-[2-fluoro-5-(trifluoromethyl)phenoxy]benzenesulfonamide], the IC50 turned out to be 718 nM.

`CC(C)(O)c1cccc(Oc2ccc(S(=O)(=O)Nc3ncc(F)s3)cc2C#N)c1` [Example 135, 3-cyano-N-(5-fluoro-1,3-thiazol-2-yl)-4-[3-(2-hydroxypropan-2-yl)phenoxy]benzenesulfonamide]: the IC50 was determined as 1730 nM.

With `N#Cc1cc(S(=O)(=O)Nc2ncc(F)s2)ccc1Oc1cc(C(F)(F)F)ccc1Cl` [Example 136, 4-[2-chloro-5-(trifluoromethyl)phenoxy]-3-cyano-N-(5-fluoro-1,3-thiazol-2-yl)benzenesulfonamide], inhibition was half-maximal at 464 nM (IC50).

In turn, `CC(C)(C)c1cccc(Oc2ccc(S(=O)(=O)Nc3ncc(F)s3)cc2C#N)c1` [Example 137, 4-(3-tert-butylphenoxy)-3-cyano-N-(5-fluoro-1,3-thiazol-2-yl)benzenesulfonamide] showed a concentration for half-maximal inhibition (IC50) greater than 8950 nM.

`N#Cc1cc(S(=O)(=O)Nc2ncc(F)s2)ccc1Oc1cc(C(F)(F)F)cc(C(F)(F)F)c1` [Example 138, 4-[3,5-bis(trifluoromethyl)phenoxy]-3-cyano-N-(5-fluoro-1,3-thiazol-2-yl)benzenesulfonamide]: the IC50 worked out at 3470 nM. This counts as single-digit micromolar.

In turn, `N#Cc1cc(S(=O)(=O)Nc2ncc(F)s2)ccc1Oc1cc(F)cc(C(F)(F)F)c1` [Example 139, 3-cyano-N-(5-fluoro-1,3-thiazol-2-yl)-4-[3-fluoro-5-(trifluoromethyl)phenoxy]benzenesulfonamide] yielded an IC50 of 3380 nM. The IC50 values of the last two compounds are within 1.5-fold of each other.

Take `N#Cc1cc(S(=O)(=O)Nc2ncc(F)s2)ccc1Oc1ccc(C#N)c(C(F)(F)F)c1` [Example 140, 3-cyano-4-[4-cyano-3-(trifluoromethyl)phenoxy]-N-(5-fluoro-1,3-thiazol-2-yl)benzenesulfonamide]: the IC50 is greater than 7300 nM.
